Assay results published in patent US8088806B2 (Achillion Pharmaceuticals, Inc., priority 2005, dated 2012).

Test system: HCV replicon
Experiment: Replicon based assay of HCV replication inhibition (NPT ELISA)
Format: cell-based, Hepatitis C virus
Details: Hepatitis C virus, Huh-7, 72 h, Table I; Huh-7 HCV replicon-containing cells, three days; read-out: Activity
Outline: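 NPT (neomycin phosphotransferase) content, proportional to replicon replication, quantified by capture ELISA on day four. Before that, replicon-bearing Huh-7 cells in G418-free screening medium were exposed three days at 37° C to compound, typically six doses from 10 to 0.03 micromolar, with equal DMSO across wells.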

| SMILES | EC50 [nM] |
| --- | --- |
| Fc1ccc(-c2csc(Nc3ccc(Cc4ccccc4)cc3)n2)c(F)c1 [compound 41, N-(4-benzylphenyl)-4-(2,4-difluorophenyl)thiazol-2-amine] | > 10000 |
| CCOC(=O)C1CCN(Cc2cccc(Nc3nc(-c4cccnc4)cs3)c2)CC1 [compound 108, ethyl 1-(3-(4-(pyridin-3-yl)thiazol-2-ylamino)benzyl)piperidine-4-carboxylate] | > 10000 |
| c1cncc(-c2csc(Nc3ccc(N4CCOCC4)cc3)n2)c1 [compound 99, N-(4-morpholinophenyl)-4-(pyridin-3-yl)thiazol-2-amine] | > 10000 |
| CCCCCOc1ccc(Nc2nc(-c3cc(C(=O)OCC)no3)cs2)cn1 [compound 180, ethyl 5-(2-(6-(pentyloxy)pyridin-3-ylamino)thiazol-4-yl)isoxazole-3-carboxylate] | > 10000 |
| N#Cc1ccc(Nc2nc(-c3ccc(Cl)cc3)cs2)cc1 [compound 54, 4-(4-(4-chlorophenyl)thiazol-2-ylamino)benzonitrile] | > 10000 |
| N#Cc1cccc(Nc2nc(-c3ccc(F)cc3F)cs2)c1 [compound 57, 3-(4-(2,4-difluorophenyl)thiazol-2-ylamino)benzonitrile] | > 10000 |
| CCCCCc1ccc(Nc2nc(-c3cccnc3)cs2)cc1 [compound 86, N-(4-pentylphenyl)-4-(pyridin-3-yl)thiazol-2-amine] | < 1000 |

Same assay, conditions: Hepatitis C virus, Huh-7, 72 h, Table III; Huh-7 HCV replicon-containing cells, three days; read-out: Activity

| SMILES | EC50 [nM] |
| --- | --- |
| CCCCCCCCOc1ccc(Nc2nc(-c3cccc(C(F)(F)F)c3)cs2)cc1C(F)(F)F [compound 715, N-(3-(trifluoromethyl)-4-(octyloxy)phenyl)-4-(3-(tnfluoromethyl)phenyl)thiazol-2-amine] | < 1000 |
| CCCCCCCCOc1ccc(Nc2nc(-c3cnc(N)c(C)c3)cs2)cc1C(F)(F)F [compound 687, 5-(2-(3-(trifluoromethyl)-4-(octyloxy)phenylamino)thiazol-4-yl)-3-methylpyridin-2-amine] | < 1000 |
| CCCCCCCCN(C)c1ccc(Nc2nc(-c3sc(-c4cnccn4)nc3C)cs2)cc1C(F)(F)F [compound 578, 2-(trifluoromethyl)-N^1-methyl-N^4-(4-(4-methyl-2-(pyrazin-2-yl)thiazol-5-yl)thiazol-2-yl)-N^1-octylbenzene-1,4-diamine] | 1000 to 10000 |
| CCCCCCCc1ccc(Nc2nc(-c3ccc4[nH]c(=O)oc4c3)cs2)cc1 [compound 561] | < 1000 |
| CCCCCCCCOc1ccc(Nc2nc(-c3cnc(NC(C)=O)c(C)c3)cs2)cc1 [compound 688, N-(5-(2-(4-(octyloxy)phenylamino)thiazol-4-yl)-3-methylpyridin-2-yl)acetamide] | 1000 to 10000 |
| CCCCCCCCc1ccc(Nc2nc(-c3ccccn3)cs2)cc1 [compound 551, N-(4-octylphenyl)-4-(pyridin-2-yl)thiazol-2-amine] | < 1000 |
| CCCCCCCCOc1ccc(Nc2nc(-c3cccc4nsnc34)cs2)cc1C(F)(F)F [compound 664, 4-(benzo[c][1,2,5]thiadiazol-4-yl)-N-(3-(trifluoromethyl)-4-(octyloxy)phenyl)thiazol-2-amine] | < 1000 |
| Fc1ccc(-c2csc(Nc3ccc(OCCCC4CCCC4)c(C(F)(F)F)c3)n2)cn1 [compound 528, N-(4-(3-cyclopentylpropoxy)-3-(trifluoromethyl)phenyl)-4-(6-fluoropyridin-3-yl)thiazol-2-amine] | < 1000 |

Same assay, conditions: Hepatitis C virus, replicon based assay of HCV replication inhibition; Table II; read-out: Activity

| SMILES | EC50 [nM] |
| --- | --- |
| CCCCCCCCOc1ccc(Nc2nc(Cc3ccccc3)cs2)cn1 [compound 491, N-(4-benzylthiazol-2-yl)-6-(octyloxy)pyridin-3-amine] | 1000 to 10000 |
| CCCCCCCCOc1ccc(Nc2nc(CN3CCOCC3)cs2)cc1 [compound 316, 4-(morpholinomethyl)-N-(4-(octyloxy)phenyl)thiazol-2-amine] | 1000 to 10000 |
| CCCCCOc1ccc(Nc2nc(-c3ccc(-c4ccccn4)s3)cs2)cc1C(F)(F)F [compound 411, N-(3-(trifluoromethyl)-4-(pentyloxy)phenyl)-4-(5-(pyridin-2-yl)thiophen-2-yl)thiazol-2-amine] | < 1000 |
| CCCCCOc1ccc(Nc2nc(CN3CCC(N(C)C(=O)OC(C)(C)C)C3)cs2)cc1F (stereo not drawn) [compound 280, tert-butyl 1-((2-(3-fluoro-4-(pentyloxy)phenylamino)thia-zol-4-yl)m,ethyl)pyrrolidin-3-yl(methyl)carbamate] | 1000 to 10000 |
| COc1ccc(-c2nc(Nc3cc(OC)ccc3OC)sc2-c2ccc(OC)cc2)cc1 [compound 357, N-(2,5-dimthoxyphenyl)-4,5-bis(4-methoxyphenyl)thiazol-2-amine] | > 10000 |
| CCCCCOc1ccc(Nc2nc(-c3ccc(NC(C)=O)cc3)cs2)cc1F [compound 439, N-(4-(2-(3-fluoro-4-(pentyloxy)phenylamino)thia-zol-4-yl)phenyl)acetamide] | < 1000 |
| CCCCCOc1ccc(Nc2nc([C@H]3CCCN(C)C3)cs2)cc1C(F)(F)F [compound 235, (S)-4-(1-methylpiperidin-3-yl)-N-(4-(pentyloxy)-3-(trifluoromethyl)phenyl)thia-zol-2-amine] | < 1000 |
| COc1ccc(-c2nc(NC(=O)c3ccccc3)sc2-c2ccc(OC)cc2)cc1 [compound 335, N-(4,5-bis(4-methoxyphenyl)thiazol-2-yl)benzamide] | 1000 to 10000 |
| CCCCCCCCN(C)c1ccc(Nc2nc(-c3cccnc3)cs2)cc1C(F)(F)F [compound 477, 2-(trifluoromethyl)-N^1-methyl-N^1-octyl-N^4-(4-(pyridin-3-yl)thiazol-2-yl)benzene-1,4-diamine] | < 1000 |
| CCCCCOc1ccc(Nc2nc(-c3ccc4[nH]c(=O)oc4c3)cs2)cc1C(F)(F)F [compound 407, 6-(2-(3-(trifluoromethyl)-4-(pentyloxy)phenylamino)thia-zol-4-yl)benzo[d]oxazol-2(3H)-one] | < 1000 |
| CCCCCN(C)c1ccc(Nc2nc(-c3cccnc3)cs2)cc1C(F)(F)F [compound 379, N^1-methyl-N^1-pentyl-N^4-(4-(pyridin-3-yl)thiazol-2-yl)-2-(trifluoromethyl)benzene-1,4-diamine] | < 1000 |
| CCCCCOc1ccc(Nc2nc(C3CCCN3C(=O)C(F)(F)F)cs2)cc1C(F)(F)F (stereo not drawn) [compound 226, 2,2,2-trifluoro-1-(2-(2-(4-(pentyloxy)-3(trifluoromethyl)phenyl-amino)thiazol-4-yl)pyrrolidin-1-yl)ethanone] | 1000 to 10000 |

Same assay, conditions: Hepatitis C virus, replicon based assay of HCV replication inhibition; Table IV; read-out: Activity

| SMILES | EC50 [nM] |
| --- | --- |
| N#Cc1ccc(Nc2nc(-c3cccnc3)cs2)cc1 [compound 880, 4-(4-(pyridin-3-yl)thiazol-2-ylamino)benzonitrile] | 1000 to 10000 |
| CCCCCCCCOc1ccc(Nc2nc(C(=O)CSc3ccccn3)cs2)cc1C(F)(F)F [compound 917, 1-(2-(3-(trifluoromethyl)-4-(octyloxy)phenylamino)thiazol-4-yl)-2-(pyridin-2-ylthio)ethanone] | 1000 to 10000 |
| N#Cc1ccc(-c2csc(Nc3ccc(OCC4CCCCC4)c(C(F)(F)F)c3)n2)o1 [compound 764, 5-(2-(4-(cyclohexylmethoxy)-3-(trifluoromethyl)phenylamino)thiazol-4-yl)furan-2-carbonitrile] | < 1000 |
| Clc1ccc(-c2cc(Nc3nc(-c4cccnc4)cs3)[nH]n2)cc1 [compound 738, 3-(4-chlorophenyl)-N-(4-(pyridin-3-yl)thiazol-2-yl)-1H-pyrazol-5-amine] | > 10000 |
| O=C(O)Cc1ccc(Nc2nc(-c3cccnc3)cs2)cc1 [compound 909, 2-(4-(4-(pyridin-3-yl)thiazol-2-ylamino)phenyl)acetic acid] | > 10000 |
| COc1cc(Nc2nc(-c3cccnc3)cs2)cc(OC)c1 [compound 901, N-(3,5-dimethoxyphenyl)-4-(pyridin-3-yl)thiazol-2-amine] | 1000 to 10000 |
| Cc1ccc(C#CCCOc2ccc(Nc3nc(-c4cccnc4)cs3)cc2C(F)(F)F)cc1 [compound 948, N-(4-(4-p-tolylbut-3-ynyloxy)-3-(trifluoromethyl)phenyl)-4-(pyridin-3-yl)thiazol-2-amine] | < 1000 |
| CCCCc1ccc(Nc2nc(-c3cccnc3)cs2)c(C)c1 [compound 900, N-(4-butyl-2-methylphenyl)-4-(pyridin-3-yl)thiazol-2-amine] | < 1000 |
| Fc1ccc(CCCCOc2ccc(Nc3nc(-c4cccnc4)cs3)cc2C(F)(F)F)cc1 [compound 947, N-(4-(4-(4-fluorophenyl)butoxy)-3-(trifluoromethyl)phenyl)-4-(pyridin-3-yl)thiazol-2-amine] | < 1000 |
| COC(=O)c1sc(-c2ccccc2)cc1Nc1nc(-c2cccnc2)cs1 [compound 744, methyl 3-(4-(pyridin-3-yl)thiazol-2-ylamino)-5-phenylthiophene-2-carboxylate] | > 10000 |
| CCCCCCCCOc1ccc(Nc2nc(-c3cccnc3C#N)cs2)cc1C(F)(F)F [compound 813, 3-(2-(3-(trifluoromethyl)-4-(octyloxy)phenylamino)thiazol-4-yl)pyridine-2-carbonitrile] | < 1000 |
| Cc1cc(OC(F)(F)F)ccc1Nc1nc(-c2cccnc2)cs1 [compound 877, N-(2-methyl-4-(trifluoromethoxy)phenyl)-4-(pyridin-3-yl)thiazol-2-amine] | > 10000 |
| Fc1cc(Nc2nc(-c3cccnc3)cs2)ccc1OCCCc1ccccc1 [compound 853, N-(4-(3-phenylpropoxy)-3-fluorophenyl)-4-(pyridin-3-yl)thiazol-2-amine] | < 1000 |
| O=C(c1ccccc1)c1cccc(Nc2nc(-c3cccnc3)cs2)c1 [compound 760, (3-(4-(pyridin-3-yl)thiazol-2-ylamino)phenyl)(phenyl) methanone] | > 10000 |
| CCOC(=O)/C=C/c1ccc(Nc2nc(-c3cccnc3)cs2)cc1 [compound 907, (E)-ethyl 3-(4-(4-(pyridin-3-yl)thiazol-2-ylamino)phenyl)acrylate] | > 10000 |
